The nature of data set [1]: IV pharmacokinetics in monkey. The class given is in vivo, Cynomolgus monkeys. Here is the method:
(§1) PK was investigated in male CD1 mice, Wistar Han Rats, Cynomolgus monkeys, and Beagle Dogs. Two groups of animals (N=3 per group) received test compound either as an intravenous (IV) dose (1 mg/kg) or by oral gavage (5 mg/kg solution and suspension). Drug was formulated in 90% PEG 400, 10% ethanol for IV administration and in 90% PEG400, 5% ethanol for PO administration. Blood samples were collected at 0.167, 0.25, 0.5, 0.75, 1, 2, 3, 5, 7, 24, 48, 72 and 96 h post dose for IV; 0.25, 0.5, 0.75, 1, 2, 3, 5, 7, 24, 48, 72 and 96 h post dose for oral. Blood samples were collected into K3EDTA tubes and centrifuged at 1500 to 2000×g to obtain plasma. Plasma samples were stored at −20° C. until analysis by LC-MS/MS. All in vivo samples were injected on an Exion LC 4500 Triple Quad™ LC-MS/MS system where the column was maintained at 60° C. and the flow rate was 0.6 mL/min. All LC-MS/MS analysis parameters are captured electronically in the raw data files. Rat IV, Dog IV, Monkey IV, and Monkey PO PK samples were analyzed by General Analysis Method A. Mouse IV, Mouse PO, and Dog PO PK samples were analyzed by General Analysis Method B. Rat PO samples were analyzed by General Analysis Method C.
(§2) The PK parameters were obtained by non-compartmental analysis of plasma concentration vs time data (Phoenix WinNonlin v8.1). The peak concentration (Cmax) and time for Cmax (Tmax) were recorded directly from experimental observations. The area under the curve from time zero to the last sampling time [AUC0-T] and the area under the curve from time zero to infinity [AUCINF] were calculated using the linear-log trapezoidal rule. The total plasma clearance (CLTp), steady-state volume of distribution (VSS), apparent elimination half-life (T-HALF), and mean residence time (MRT) were estimated after IV administration. Estimations of AUC and T-HALF were made using a minimum of three timepoints with quantifiable concentrations. The absolute oral bioavailability (F) was estimated as the ratio of dose-normalized AUC values following oral and IV doses.

The nature of data set [2]: IV pharmacokinetics in mouse. The class given is in vivo, male CD1 mice. The settings on record: male, CD1, plasma, IV 1 mg/kg. How it is done:
as §1, §2

Data set [3] can be described thus: IV pharmacokinetics in rat. The class given is in vivo, Wistar Han Rats. The settings on record: Wistar Han, plasma, IV 1 mg/kg. How it is done:
as §1, §2

Data set [4] is described as follows: Metabolism in liver microsomes (dog). In kind it is in vitro ADME. How it is done: (§3) Liver microsomes from human, rat dog and monkey were thawed and diluted to a final concentration of 1 mg/mL in 100 mM potassium phosphate buffer (pH 7.4). Test compounds and controls were prepared at 100× final concentration of 1 μM in 1:1 acetonitrile:water (v/v) and aliquoted into microsomal mixture. The mixture was preincubated at 37° C. in a shaking water bath for 10 minutes. The incubations were performed in duplicate. Three controls were included in the incubations; warfarin, phenacetin, and verapamil. After the preincubation, the reaction was initiated with NADPH at a final concentration of 1 mM. At 0, 5, 15, 30, 45 and 60 minutes, 25 μL of sample was removed and quenched with 300 μL of acetonitrile containing internal standard (Telmisartan). The samples were vortexed for 5 minutes at 1200 rpm and then centrifuged at 4000 rpm for 10 min. A 100 μL aliquot of supernatant was diluted three-fold with water and injected on an Exion LC 4500 Triple Quad LC-MS/MS system. Results were reported as a percentage of parent remaining and was calculated from peak area ratios of test compound remaining after at each time point and compared to time zero incubation.

Data set [5] is described as follows: Metabolism in liver microsomes (rat). Conditions: pH 7.4, 1 μM compound, 1 mg/mL microsomes, NADPH, read-out: Rat liver microsome T1/2. The class given is in vitro ADME. Here is the method: as §3
Data set [6] can be described thus: Metabolism in liver microsomes (human). Conditions: pH 7.4, 1 μM compound, 1 mg/mL microsomes, NADPH, read-out: Human liver microsome T1/2. The class given is in vitro ADME. Here is the method: as §3
A general note: Liver microsomes are a subcellular fraction often used to study metabolism.

Data set [7] in a line: Subcutaneous pharmacokinetics in rat. In kind it is in vivo, Wistar Han Rats. How it is done: Drug was formulated in 1% Kolliphor P188/1% PEG3350/3.5% Mannitol/94.5% Water and then administered to Wistar Han Rats as a subcutaneous injection at a dose of 20 mg/kg. Blood samples were collected at 0.167, 0.25, 0.5, 0.75, 1, 2, 3, 5, 7, 24, 48, 72, 96 h, and then every 3 days for up to 122 days. Blood samples were collected into K3EDTA tubes and centrifuged at 1500 to 2000×g to obtain plasma. Plasma samples were stored at −20° C. until analysis by LC-MS/MS.

A short description of data set [8]: Cytotoxicity in uninfected MT2 cells, XTT colorimetric assay. In kind it is cell-based. The settings on record: human, day 4, XTT. How it is done: Compound cytotoxicity and the corresponding CC50 values were determined using the same protocol as described in the antiviral assay except that uninfected cells were used. Cytotoxicity was assessed on day 4 in uninfected MT2 cells by using an XTT (2,3-bis[2-Methoxy-4-nitro-5-sulfophenyl]-2H-tetrazolium-5-carboxyanilide inner salt)-based colorimetric assay (Sigma-Aldrich, St Louis, Mo).
Background: Tetrazolium dyes change colour on reduction, which living cells bring about.

Setting [9] is: cynomolgus monkey, plasma, Monkey, IV 1 mg/kg.

Where only a bound is given, the exact number is not on record here.

For the compound `Cn1nc(NS(C)(=O)=O)c2c(Cl)ccc(-n3c([C@H](Cc4cc(F)cc(F)c4)NC(=O)Cn4nc(C(F)F)c5c4C(F)(F)[C@@H]4C[C@H]54)nc4nc(OCCC(F)(F)F)ccc4c3=O)c21` (atropisomer, axis not shown; (P)) [Example 1, N—((S)-1-((3P)-3-(4-chloro-1-methyl-3-(methylsulfonamido)-1H-indazol-7-yl)-4-oxo-7-(3,3,3-trifluoropropoxy)-3,4-dihydropyrido[2,3-d]pyrimidin-2-yl)-2-(3,5-difluorophenyl)ethyl)-2-((3bS,4aR)-3-(difluoromethyl)-5,5-difluoro-3b,4,4a,5-tetrahydro-1H-cyclopropa[3,4]cyclopenta[1,2-c]pyrazol-1-yl)acetamide], the clearance (in general, the rate of elimination divided by the concentration) came out at 8.5 mL/min/kg in data set [1] (setting [9]), 0.5 mL/min/kg in data set [2] and 2.64 mL/min/kg in data set [3]. Further, the half-life was 3 h in data set [1] (setting [9]); 7.6 h in data set [2]; 17.4 h in data set [3]; 312 h in data set [7] (Wistar Han, plasma, SC 20 mg/kg, read-out: apparent half-life of compound in plasma (converted)). Further, the Vd in data set [1] (cynomolgus monkey, plasma, Monkey, IV 1 mg/kg, read-out: Vss) is 1.18 L/kg; in data set [2] (read-out: Vss), 0.24 L/kg; in data set [3] (read-out: Vss), 3.34 L/kg. The “clearance improved relative to Example 60.2” value in data set [1] (monkey, IV) came to 2.6 fold. In data set [1] (monkey, IV), the “half-life in circulation higher than Example 60.2” value was “two-fold”. Moreover, in data set [4] (Example 1 versus Example 60.2), the “stability in dog liver microsomes relative to Example 60.2” value is “six times more stable”. For the same compound, the half-life at 1 μM was 1.75 h in data set [4] (dog, liver microsomes, pH 7.4, 1 μM compound, 1 mg/mL microsomes, NADPH, read-out: Dog liver microsome T1/2); more than 2 h in data set [5]; more than 2 h in data set [6]. In data set [7] (SC 20 mg/kg), the “% of the AUC extrapolated” value is 2.89%. In data set [7] (SC 20 mg/kg (FIG. 1)), the “time drug concentrations were maintained above 7 ng/mL for all animals” value was found to be 73 days. Also, in data set [7] (Wistar Han, plasma, SC 20 mg/kg), the bioavailability (as a rule, dose-corrected exposure relative to a reference, in per cent) amounted to 93%. Also, the CC50 (in general, the concentration that lowers cell viability or growth by half) at 4 days in data set [8] is more than 500 nM.

Source of the values: US12129255B2, “Pyrido [2,3-d]pyrimidine derivatives as inhibitors of human immunodeficiency virus replication” (VIIV HEALTHCARE UK (No. 5) LIMITED, priority 2019, dated 2024).
